Laboratory results taken from ChEMBL document CHEMBL4390652, “Design, biological evaluation and X-ray crystallography of nanomolar multifunctional ligands targeting simultaneously acetylcholinesterase and glycogen synthase kinase-3” (Eur J Med Chem, 2019).

Assays:
[1] = target: Dual specificity mitogen-activated protein kinase kinase 5 (Homo sapiens) (UniProt Q13163); test: Binding affinity to wild-type human partial length MEK5 (L98 to P448 residues) expressed in mammalian expression system assessed as residual binding level at 10 uM by Kinomescan method relative to control
[2] = target: Cyclin-dependent kinase 11A (Homo sapiens) (UniProt Q9UQ88); test: Binding affinity to wild-type human partial length CDC2L2 (D391 to K730 residues) expressed in bacterial expression system assessed as residual binding level at 10 uM by Kinomescan method relative to control
[3] = target: Cyclin-dependent kinase 4/cyclin D1 (Homo sapiens) (UniProt P11802+P24385); test: Binding affinity to wild-type human full length CDK4/cyclinD1 (M1 to E303 residues) expressed in mammalian expression system assessed as residual binding level at 10 uM by Kinomescan method relative to control
[4] = target: Platelet-derived growth factor receptor alpha (Homo sapiens) (UniProt P16234); test: Binding affinity to wild-type human partial length PDGFRA (V575 to D1002 residues) expressed in mammalian expression system assessed as residual binding level at 10 uM by Kinomescan method relative to control
[5] = target: Serine/threonine-protein kinase Nek4 (Homo sapiens) (UniProt P51957); test: Binding affinity to wild-type human full length NEK4 (M1 to F841 residues) expressed in mammalian expression system assessed as residual binding level at 10 uM by Kinomescan method relative to control
[6] = system: MDCK-MDR1; test: Cytotoxicity against MDCK2-MDR1 cells assessed as reduction in cell viability at 75 uM incubated for 2 hrs by MTT assay; type: ADME, cell-based, Canis lupus familiaris; settings: dog, mdck-mdr1, 2 h
[7] = system: Tyrosine-protein kinase ABL1 (Homo sapiens), P00519 [Q252H]; test: Binding affinity to human phosphorylated ABL1 Q252H mutant expressed in mammalian expression system assessed as residual binding level at 10 uM by Kinomescan method relative to control
[8] = target: Serine/threonine-protein kinase DCLK3 (Homo sapiens) (UniProt Q9C098); test: Binding affinity to wild-type human partial length DCAMKL3 (E140 to V628 residues) expressed in bacterial expression system assessed as residual binding level at 10 uM by Kinomescan method relative to control
[9] = target: Tyrosine-protein kinase HCK (Homo sapiens) (UniProt P08631); test: Binding affinity to wild-type human full length HCK (M22 to P526 residues) expressed in bacterial expression system assessed as residual binding level at 10 uM by Kinomescan method relative to control
Tyrosine-protein kinase HCK (Homo sapiens), sequence (P08631 2-526 limits assumed): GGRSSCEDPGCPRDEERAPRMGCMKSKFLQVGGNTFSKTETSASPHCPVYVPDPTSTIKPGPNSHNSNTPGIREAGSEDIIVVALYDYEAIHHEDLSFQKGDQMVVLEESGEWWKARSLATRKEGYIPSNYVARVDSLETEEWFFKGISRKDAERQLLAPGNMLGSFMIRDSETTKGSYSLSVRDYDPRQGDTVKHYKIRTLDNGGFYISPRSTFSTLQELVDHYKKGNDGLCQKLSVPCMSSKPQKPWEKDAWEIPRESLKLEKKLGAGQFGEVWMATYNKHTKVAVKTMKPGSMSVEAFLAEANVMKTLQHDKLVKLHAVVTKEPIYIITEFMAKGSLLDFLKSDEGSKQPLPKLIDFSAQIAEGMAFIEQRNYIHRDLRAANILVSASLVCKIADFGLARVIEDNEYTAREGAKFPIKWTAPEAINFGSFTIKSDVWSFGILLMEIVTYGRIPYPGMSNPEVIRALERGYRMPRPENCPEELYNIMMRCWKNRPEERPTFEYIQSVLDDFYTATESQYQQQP

[10] = target: Receptor-interacting serine/threonine-protein kinase 2 (Homo sapiens) (UniProt O43353); test: Binding affinity to wild-type human partial length RIPK2 (M1 to K310 residues) expressed in bacterial expression system assessed as residual binding level at 10 uM by Kinomescan method relative to control
[11] = system: ALK tyrosine kinase receptor (Homo sapiens), Q9UM73 [C1156Y]; test: Binding affinity to wild-type human partial length ALK C1156Y mutant (I1088 to E1409 residues) expressed in mammalian expression system assessed as residual binding level at 10 uM by Kinomescan method relative to control
ALK tyrosine kinase receptor (Homo sapiens), Q9UM73 [C1156Y], sequence (Q9UM73 whole entry C1156Y, looked up, the tested form may be a part): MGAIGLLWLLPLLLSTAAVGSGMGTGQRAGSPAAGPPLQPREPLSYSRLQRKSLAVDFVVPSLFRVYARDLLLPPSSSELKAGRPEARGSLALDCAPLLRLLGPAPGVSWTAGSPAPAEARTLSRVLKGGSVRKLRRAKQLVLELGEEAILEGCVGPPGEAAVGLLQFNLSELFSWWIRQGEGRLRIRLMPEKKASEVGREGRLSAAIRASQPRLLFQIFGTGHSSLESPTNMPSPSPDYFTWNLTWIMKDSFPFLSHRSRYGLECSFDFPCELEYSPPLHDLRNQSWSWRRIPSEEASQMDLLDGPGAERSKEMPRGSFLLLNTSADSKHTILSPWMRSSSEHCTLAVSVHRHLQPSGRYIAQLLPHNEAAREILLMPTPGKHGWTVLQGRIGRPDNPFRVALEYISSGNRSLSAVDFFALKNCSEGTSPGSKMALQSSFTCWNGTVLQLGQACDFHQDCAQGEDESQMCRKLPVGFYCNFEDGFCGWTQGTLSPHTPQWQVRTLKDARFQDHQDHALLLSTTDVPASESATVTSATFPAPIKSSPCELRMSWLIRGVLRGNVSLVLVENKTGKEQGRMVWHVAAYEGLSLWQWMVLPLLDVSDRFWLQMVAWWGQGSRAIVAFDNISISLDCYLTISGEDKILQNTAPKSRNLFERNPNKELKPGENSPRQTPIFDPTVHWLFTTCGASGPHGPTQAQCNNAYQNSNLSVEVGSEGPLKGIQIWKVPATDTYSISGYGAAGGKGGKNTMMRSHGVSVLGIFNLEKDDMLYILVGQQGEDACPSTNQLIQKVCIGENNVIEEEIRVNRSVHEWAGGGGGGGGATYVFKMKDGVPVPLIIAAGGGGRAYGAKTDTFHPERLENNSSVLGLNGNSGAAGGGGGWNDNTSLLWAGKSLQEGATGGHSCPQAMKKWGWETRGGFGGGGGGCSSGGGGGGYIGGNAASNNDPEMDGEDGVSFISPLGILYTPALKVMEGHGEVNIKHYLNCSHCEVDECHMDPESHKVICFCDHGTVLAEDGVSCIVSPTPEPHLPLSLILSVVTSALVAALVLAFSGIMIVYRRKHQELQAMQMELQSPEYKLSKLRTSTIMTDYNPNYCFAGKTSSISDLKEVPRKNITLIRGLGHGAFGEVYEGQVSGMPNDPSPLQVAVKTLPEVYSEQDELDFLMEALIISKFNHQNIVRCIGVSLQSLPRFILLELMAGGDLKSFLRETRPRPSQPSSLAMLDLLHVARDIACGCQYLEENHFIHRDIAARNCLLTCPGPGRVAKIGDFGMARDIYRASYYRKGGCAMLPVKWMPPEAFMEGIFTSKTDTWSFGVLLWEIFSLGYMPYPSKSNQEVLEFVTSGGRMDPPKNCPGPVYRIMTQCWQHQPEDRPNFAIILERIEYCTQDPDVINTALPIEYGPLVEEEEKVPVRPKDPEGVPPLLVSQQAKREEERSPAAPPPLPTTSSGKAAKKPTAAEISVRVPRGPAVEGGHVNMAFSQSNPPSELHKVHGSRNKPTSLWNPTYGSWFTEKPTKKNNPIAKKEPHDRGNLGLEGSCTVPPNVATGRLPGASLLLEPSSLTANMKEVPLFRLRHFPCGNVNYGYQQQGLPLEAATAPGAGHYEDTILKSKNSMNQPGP

[12] = target: Tyrosine-protein kinase receptor Tie-1 (Homo sapiens) (UniProt P35590); test: Binding affinity to wild-type human partial length TIE1 (T819 to A1138 residues) expressed in bacterial expression system assessed as residual binding level at 10 uM by Kinomescan method relative to control
[13] = target: Serine/threonine-protein kinase TAO3 (Homo sapiens) (UniProt Q9H2K8); test: Binding affinity to wild-type human partial length TAOK3 (M1 to T316 residues) expressed in mammalian expression system assessed as residual binding level at 10 uM by Kinomescan method relative to control
Serine/threonine-protein kinase TAO3 (Homo sapiens), sequence (Q9H2K8 whole entry, the tested form may be a part, canonical isoform): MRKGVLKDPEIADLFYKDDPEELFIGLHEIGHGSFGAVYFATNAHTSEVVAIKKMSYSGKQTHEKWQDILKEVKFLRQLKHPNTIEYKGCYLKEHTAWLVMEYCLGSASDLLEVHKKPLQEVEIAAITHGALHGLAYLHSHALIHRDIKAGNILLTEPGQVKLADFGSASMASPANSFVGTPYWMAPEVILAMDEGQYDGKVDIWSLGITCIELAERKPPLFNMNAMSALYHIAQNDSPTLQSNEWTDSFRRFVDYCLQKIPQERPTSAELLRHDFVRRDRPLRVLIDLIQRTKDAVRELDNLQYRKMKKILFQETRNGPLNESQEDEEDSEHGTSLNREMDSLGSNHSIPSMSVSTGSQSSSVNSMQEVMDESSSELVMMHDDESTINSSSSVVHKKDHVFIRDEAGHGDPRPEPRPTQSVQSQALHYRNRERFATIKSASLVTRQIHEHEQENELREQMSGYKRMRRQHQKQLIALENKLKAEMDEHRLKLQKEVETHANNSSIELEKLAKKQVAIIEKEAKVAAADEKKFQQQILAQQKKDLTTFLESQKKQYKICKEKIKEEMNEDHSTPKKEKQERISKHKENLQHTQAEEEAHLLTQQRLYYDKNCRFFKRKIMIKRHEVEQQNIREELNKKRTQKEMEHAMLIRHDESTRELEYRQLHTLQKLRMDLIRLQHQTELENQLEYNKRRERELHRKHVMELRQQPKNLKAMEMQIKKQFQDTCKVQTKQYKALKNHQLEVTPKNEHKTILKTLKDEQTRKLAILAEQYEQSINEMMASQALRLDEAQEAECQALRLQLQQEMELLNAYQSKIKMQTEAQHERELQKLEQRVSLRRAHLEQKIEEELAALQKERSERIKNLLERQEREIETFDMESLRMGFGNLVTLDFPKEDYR

[14] = target: Casein kinase I isoform alpha (Homo sapiens) (UniProt P48729); test: Binding affinity to wild-type human partial length CSNK1A1 (M1 to L450 residues) expressed in mammalian expression system assessed as residual binding level at 10 uM by Kinomescan method relative to control
Casein kinase I isoform alpha (Homo sapiens), sequence (P48729 2-337 limits assumed): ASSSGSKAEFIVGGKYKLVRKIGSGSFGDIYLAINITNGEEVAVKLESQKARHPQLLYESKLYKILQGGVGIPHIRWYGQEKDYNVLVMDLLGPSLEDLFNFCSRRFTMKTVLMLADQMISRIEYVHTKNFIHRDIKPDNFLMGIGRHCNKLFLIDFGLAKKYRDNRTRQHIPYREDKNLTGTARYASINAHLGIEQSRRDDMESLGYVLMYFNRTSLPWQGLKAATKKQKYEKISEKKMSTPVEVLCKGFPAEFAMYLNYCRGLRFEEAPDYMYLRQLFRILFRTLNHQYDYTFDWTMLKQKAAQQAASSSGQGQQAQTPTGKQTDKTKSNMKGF

[15] = target: Protein kinase C iota type (Homo sapiens) (UniProt P41743); test: Binding affinity to wild-type human partial length PRKCI (H215 to V587 residues) expressed in mammalian expression system assessed as residual binding level at 10 uM by Kinomescan method relative to control
[16] = target: Calcium/calmodulin-dependent protein kinase type 1G (Homo sapiens) (UniProt Q96NX5); test: Binding affinity to wild-type human partial length CAMK1G (M1 to A342 residues) expressed in bacterial expression system assessed as residual binding level at 10 uM by Kinomescan method relative to control
Calcium/calmodulin-dependent protein kinase type 1G (Homo sapiens), sequence (Q96NX5 whole entry, the tested form may be a part): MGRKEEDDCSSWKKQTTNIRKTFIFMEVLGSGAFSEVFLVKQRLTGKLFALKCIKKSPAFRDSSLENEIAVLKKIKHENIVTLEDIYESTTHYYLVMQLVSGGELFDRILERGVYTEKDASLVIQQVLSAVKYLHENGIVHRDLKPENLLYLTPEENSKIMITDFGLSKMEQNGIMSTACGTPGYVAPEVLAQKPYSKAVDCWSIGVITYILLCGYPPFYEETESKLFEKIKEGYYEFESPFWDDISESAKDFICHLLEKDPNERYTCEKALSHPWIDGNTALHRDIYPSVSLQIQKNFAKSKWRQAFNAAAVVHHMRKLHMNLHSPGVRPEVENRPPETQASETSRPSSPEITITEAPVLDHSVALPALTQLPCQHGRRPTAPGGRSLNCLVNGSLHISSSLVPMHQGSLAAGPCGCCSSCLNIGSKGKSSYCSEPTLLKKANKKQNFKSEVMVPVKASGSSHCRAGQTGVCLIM

[17] = system: Tyrosine-protein kinase ABL1 (Homo sapiens), P00519 [T315I]; test: Binding affinity to human non-phosphorylated ABL1 T315I mutant (S229 to K512 residues) expressed in mammalian expression system assessed as residual binding level at 10 uM by Kinomescan method relative to control
[18] = target: Membrane-associated tyrosine- and threonine-specific cdc2-inhibitory kinase (Homo sapiens) (UniProt Q99640); test: Binding affinity to wild-type human partial length PKMYT1 (A88 to G366 residues) expressed in bacterial expression system assessed as residual binding level at 10 uM by Kinomescan method relative to control
[19] = target: Myosin light chain kinase family member 4 (Homo sapiens) (UniProt Q86YV6); test: Binding affinity to wild-type human partial length MYLK4 (V79 to S380 residues) expressed in bacterial expression system assessed as residual binding level at 10 uM by Kinomescan method relative to control
[20] = target: cAMP-dependent protein kinase catalytic subunit alpha (Homo sapiens) (UniProt P17612); test: Binding affinity to wild-type human partial length PKAC-alpha (G10 to F351 residues) expressed in bacterial expression system assessed as residual binding level at 10 uM by Kinomescan method relative to control
[21] = target: Serine/threonine-protein kinase SIK3 (Homo sapiens) (UniProt Q9Y2K2); test: Binding affinity to wild-type human partial length QSK (A90 to L395 residues) expressed in mammalian expression system assessed as residual binding level at 10 uM by Kinomescan method relative to control
[22] = target: Testis-specific serine/threonine-protein kinase 1 (Homo sapiens) (UniProt Q9BXA7); test: Binding affinity to wild-type human full length TSSK1B (M1 to Q367 residues) expressed in bacterial expression system assessed as residual binding level at 10 uM by Kinomescan method relative to control
Testis-specific serine/threonine-protein kinase 1 (Homo sapiens), sequence (Q9BXA7 whole entry, the tested form may be a part): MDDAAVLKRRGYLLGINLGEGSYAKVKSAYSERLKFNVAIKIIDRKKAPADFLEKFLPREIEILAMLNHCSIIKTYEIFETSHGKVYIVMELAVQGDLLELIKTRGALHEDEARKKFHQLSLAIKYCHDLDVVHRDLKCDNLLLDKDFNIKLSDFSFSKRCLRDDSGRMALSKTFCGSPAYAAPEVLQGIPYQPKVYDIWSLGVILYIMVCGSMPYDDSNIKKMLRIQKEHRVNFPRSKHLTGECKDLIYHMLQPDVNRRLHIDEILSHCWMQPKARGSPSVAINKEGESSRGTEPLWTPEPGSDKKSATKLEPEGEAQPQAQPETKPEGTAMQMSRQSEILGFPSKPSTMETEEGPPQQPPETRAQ

[23] = target: Serine/threonine-protein kinase pim-3 (Homo sapiens) (UniProt Q86V86); test: Binding affinity to wild-type human partial length PIM3 (G16 to A317 residues) expressed in bacterial expression system assessed as residual binding level at 10 uM by Kinomescan method relative to control
[24] = target: Inhibitor of nuclear factor kappa-B kinase subunit epsilon (Homo sapiens) (UniProt Q14164); test: Binding affinity to wild-type human full length IKK-epsilon (M1 to V716 residues) expressed in mammalian expression system assessed as residual binding level at 10 uM by Kinomescan method relative to control
Inhibitor of nuclear factor kappa-B kinase subunit epsilon (Homo sapiens), sequence (Q14164 whole entry, the tested form may be a part): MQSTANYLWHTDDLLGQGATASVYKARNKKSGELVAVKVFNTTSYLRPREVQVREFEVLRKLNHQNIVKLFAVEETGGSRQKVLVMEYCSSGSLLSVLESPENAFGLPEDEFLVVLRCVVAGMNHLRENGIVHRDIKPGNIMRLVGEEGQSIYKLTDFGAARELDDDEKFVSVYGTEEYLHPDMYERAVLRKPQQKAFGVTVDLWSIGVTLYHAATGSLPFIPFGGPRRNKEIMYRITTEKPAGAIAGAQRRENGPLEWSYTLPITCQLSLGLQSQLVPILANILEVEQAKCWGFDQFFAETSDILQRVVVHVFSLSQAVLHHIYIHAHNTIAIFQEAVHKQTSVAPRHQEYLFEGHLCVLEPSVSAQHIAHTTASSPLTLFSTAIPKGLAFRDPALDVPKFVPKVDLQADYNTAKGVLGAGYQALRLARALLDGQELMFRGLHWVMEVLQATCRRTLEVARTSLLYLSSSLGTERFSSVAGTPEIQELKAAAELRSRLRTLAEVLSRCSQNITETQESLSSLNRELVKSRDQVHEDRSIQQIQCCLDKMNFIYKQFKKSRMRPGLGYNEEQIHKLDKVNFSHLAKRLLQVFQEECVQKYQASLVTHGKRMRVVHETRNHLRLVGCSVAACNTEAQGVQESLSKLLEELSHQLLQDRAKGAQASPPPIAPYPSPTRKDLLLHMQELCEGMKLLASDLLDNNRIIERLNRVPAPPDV

Work on O=C(Nc1cc(-c2cn(CCNc3c4c(nc5ccccc35)CCCC4)nn2)ccn1)Nc1cccc2c1C1CCCCN1C2=O (racemic) yielded an Activity [1] of 1.6%, an Activity [2] of 99% and an Activity [3] of 1.1%. For the same molecule, the Activity [4] was 22%, the Activity [5] was 98% and the Activity [6] was “Non-Toxic”. It also gave an Activity [7] of 1.4%, an Activity [8] of 33% and an Activity [9] of 100%. The Activity [10] was 66%, the Activity [11] was 100% and the Activity [12] was 66%. For the same molecule, the Activity [13] was 3.8%, the Activity [14] was 5.3% and the Activity [15] was 100%. It also gave an Activity [16] of 44%, an Activity [17] of 18% and an Activity [18] of 90%. The Activity [19] was 0%, the Activity [20] was 100% and the Activity [21] was 23%. It also gave an Activity [22] of 47%, an Activity [23] of 24% and an Activity [24] of 52%.
